Laboratory results taken from patent US6838253B2, “Regulation of intracellular glucocorticoid concentrations” (The University of Edinburgh, priority 1995, dated 2005).

What was measured:
[1] = biological target: T1, hepatic 11β-reductase activity (Homo sapiens, UniProt P28845); assay: conversion of oral cortisone to cortisol on first pass as index of 11β-reductase activity in vivo in man
T1 construct: from tissue; host or cells: liver of human volunteers, in vivo
From the text: Consistent with the observations in animal tissues and cultured cells described above, we have established the relative activities of 11β-dehydrogenase and 11β-reductase in vivo in different organs in man by measuring the cortisol/cortisone ratio in plasma from selective venous catheterisations. In most organs the venous effluent contains cortisol and cortisone in a ratio of ˜10:1. However, in renal vein plasma the ratio is 3:1, while in hepatic vein plasma the ratio is 55:1, consistent with potent 11β-dehydrogenase activity due to 11β-HSD2 expression in the kidney and potent 11β-reductase 11β-HSD1 activity in the liver. Moreover, cortisone taken orally, and therefore delivered to the liver via the portal vein, is avidly converted on first pass to cortisol in the peripheral circulation. Using this index of 11β-reductase activity we have shown that, in addition to inhibiting renal 11β-dehydrogenase activity, carbenoxolone (but not glycyrrhetinic acid) inhibits hepatic 11β-reductase activity in vivo in man.

[2] = euglycaemic hyperinsulinaemic clamp study with forearm glucose uptake in healthy male volunteers; type: in vivo, human
Procedure: Seven non-obese (Body Mass Index <25) healthy male Caucasian volunteers on no medication, aged 27-36 years, were given carbenoxolone (100 mg every 8 hours orally) or matched placebo for seven days in a randomised double-blind cross-over design, with phases separated by at least 4 weeks. On the seventh day of each phase euglycaemic hyperinsulinaemic clamp studies with measurement of forearm glucose uptake were performed, as described in detail in reference 16, the content of which is incorporated herein by reference.

[3] = fasting plasma glucose in rats after 14 days of subcutaneous treatment; type: in vivo, rat; details: 1, 3 or 10 mg daily s.c., male Wistar Hans rats
Procedure: Intact male Wistar Hans rats of body weight 200-250 g were treated with daily subcutaneous injection of 1 ml of either 0.9% saline (vehicle) or carbenoxolone (made up to 1, 3, or 10 mg/ml in 0.9% saline) for 14 days. They were fasted from 4 pm and blood obtained by tail-nick at 9 am the next day. Plasma glucose was measured by a glucose oxidase method on a Beckman CX-3 autoanalyser.

[4] = biological target: T2, 11β-reductase activity (Rattus norvegicus, UniProt P16232); assay: 11β-reductase activity in whole primary fetal hippocampal cells in culture; type: cell-based; details: 10^−6M
T2 construct: endogenous in cells; host or cells: primary cultures of fetal rat hippocampal cells
From the text: Hippocampi were dissected from Wistar rat embryos on day 18.5 of pregnancy and cultured in DMEM with supplements, as described. These cells expressed 11β-HSD1 mRNA, and homogenised cells performed either 11β-dehydrogenase or 11β-reductase activity.

[5] = tested on: rat hippocampal cells; assay: kainic acid neurotoxicity, hippocampal cell survival; type: cell-based; details: for kainic acid neurotoxicity: pretreatment with steroid alone
From the text: To assess the influence of 11β-reductase activity on neurotoxicity, cells were exposed to kainic acid and cell survival determined.

[6] = biological target: T3, 5β-reductase (Homo sapiens, UniProt P51857); details: reference 35; cited from earlier work
T3 sequence (P51857 1-326): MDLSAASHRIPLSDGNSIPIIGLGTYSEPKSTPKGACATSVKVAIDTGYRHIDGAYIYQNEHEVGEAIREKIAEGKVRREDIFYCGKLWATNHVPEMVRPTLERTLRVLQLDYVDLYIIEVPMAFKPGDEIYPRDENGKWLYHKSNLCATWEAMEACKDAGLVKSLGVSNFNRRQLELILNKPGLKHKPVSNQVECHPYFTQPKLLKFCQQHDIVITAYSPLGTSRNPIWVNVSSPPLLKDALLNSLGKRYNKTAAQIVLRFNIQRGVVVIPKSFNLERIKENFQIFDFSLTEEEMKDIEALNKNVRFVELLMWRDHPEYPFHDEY

[7] = tested on: corticosteroids receptors; details: reference 36; cited from earlier work
[8] = tested on: adipocytes; details: higher concentrations (mmol/l), without corticosteroid, reference 37; cited from earlier work
[9] = biological target: T4, glucocorticoid receptors (Homo sapiens, UniProt P04150); details: reference 29; cited from earlier work
T4 sequence (P04150 1-777): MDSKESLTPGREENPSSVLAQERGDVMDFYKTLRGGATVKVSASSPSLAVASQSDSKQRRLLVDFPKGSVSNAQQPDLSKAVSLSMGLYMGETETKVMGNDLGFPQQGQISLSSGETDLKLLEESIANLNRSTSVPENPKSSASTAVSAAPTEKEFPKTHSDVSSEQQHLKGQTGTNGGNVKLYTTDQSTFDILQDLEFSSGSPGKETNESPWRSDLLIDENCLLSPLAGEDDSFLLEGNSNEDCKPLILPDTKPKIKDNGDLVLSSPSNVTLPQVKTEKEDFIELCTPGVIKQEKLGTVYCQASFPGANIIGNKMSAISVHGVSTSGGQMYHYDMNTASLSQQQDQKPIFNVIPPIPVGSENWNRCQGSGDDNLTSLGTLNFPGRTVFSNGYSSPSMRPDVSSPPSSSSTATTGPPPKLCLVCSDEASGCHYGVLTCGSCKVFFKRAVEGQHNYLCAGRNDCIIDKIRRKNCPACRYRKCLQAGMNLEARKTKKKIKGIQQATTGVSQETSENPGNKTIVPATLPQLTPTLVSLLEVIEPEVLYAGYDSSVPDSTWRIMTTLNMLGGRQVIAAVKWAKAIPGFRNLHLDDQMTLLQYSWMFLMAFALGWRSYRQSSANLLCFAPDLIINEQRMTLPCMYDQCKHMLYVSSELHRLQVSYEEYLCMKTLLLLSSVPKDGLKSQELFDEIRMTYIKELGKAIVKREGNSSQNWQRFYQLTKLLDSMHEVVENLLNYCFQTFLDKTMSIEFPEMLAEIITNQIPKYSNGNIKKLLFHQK

[10] = thymic involution in mice; type: in vivo, mouse; details: wild-type control mice; homozygous mutant mice resistant
From the text: Homozygotes for the mutant allele are morphologically intact and fully fertile. No survival bias is conferred by the mutant allele. However, neither 11β-HSD1 mRNA nor enzyme activity (techniques as above) were detected in mutant homozygotes, and reduced mRNA and activity were detected in heterozygotes.

[11] = tested on: 11β-HSD; assay: 11β-HSD activity in tissue homogenates of treated gonadectomised rats; type: in vivo, rat
From the text: (§1) Male Han Wistar rats (200-250 g) underwent gonadectomy and either bilateral adrenalectomy or sham-operation under halothane anaesthesia. For estradiol administration, silicone elastomer capsules (1.95 mm internal diameter, 3.125 mm external diameter) (Dow Corning Corporation, Midland, Mich., USA) containing 17β-estradiol (Sigma, Poole, UK) were implanted subcutaneously. For animals treated for 42 days with estradiol, the capsules were removed and replaced after 21 days. Control animals were implanted with blank capsules. Adrenalectomised rats were maintained on 0.9%. saline. Rats were killed 10, 21 or 42 days after surgery. Liver and hippocampus were removed and dissected on ice for assay of 11β-HSD activity and an aliquot of liver was frozen on dry ice and stored at −80° C. until extraction of RNA.
Tissues were homogenised in Krebs-Ringer bicarbonate buffer with 0.2% glucose, pH 7.4, and assayed as described previously. Homogenates (6.25 μg of liver protein, 250 μg of hippocampal protein) were incubated with 200 μM NADP (Sigma, Poole, UK) and 12 nM [^3H]-corticosterone (specific activity 84 Ci/mmol; Amersham International, Aylesbury, UK) in a total volume of 250 μl with […] 11β-dehydrogenase activity was quantified in this assay as a measure of active enzyme since 11β-reductase is unstable in homogenates. Steroids were extracted with ethyl acetate and separated by HPLC with on-line β courtier. 11β-HSD activity was expressed as conversion of corticosterone to 11-dehydrocorticosterone, after correction for apparent conversion in incubates without enzyme (<3%).

[12] = tested on: 11β-HSD1 mRNA; assay: northern analysis of hepatic 11β-HSD1 mRNA in treated rats; type: in vivo, rat
From the text: as §1
Total RNA was extracted from liver tissue by the guanidinium thiocyanate method, as described and resuspended in diethylpyrocarbonate-treated water. RNA concentration and purity was assayed spectrophotometrically. 20 μg aliquots were separated on a 1.2% agarose gel containing 2% formaldehyde. […] Optical density was determined using a computer-driven image analysis system (Seescan plc, Cambs, UK). Values were expressed as a percentage of control levels.

[13] = tested on: PEPCK mRNA; assay: northern analysis of hepatic PEPCK mRNA in treated rats; type: in vivo, rat
From the text: as §1
Total RNA was extracted from liver tissue by the guanidinium thiocyanate method, as described and resuspended in diethylpyrocarbonate-treated water. RNA concentration and purity was assayed spectrophotometrically. 20 μg aliquots were separated on a 1.2% agarose gel containing 2% formaldehyde. RNA was blotted onto nitrocellulose membranes (Hybond-N, Amersham International, UK), prehybridized in 6 ml phosphate buffer (0.2 M NaH2PO4, 0.6 M NaH2PO4, 5 mM EDTA), 3 ml 20% SDS and 100 μg denatured herring testis DNA (Sigma, Poole, UK) for 2 h at 55° C. and hybridized at 55° C. overnight in the same solution containing rat 11β-HSD1 or PEPCK cDNA, labelled with ^32P-dCTP using a random primed DNA labelling kit (Boehringer Mannheim UK Ltd., Lewes, UK). Three 20 min washes were carried out at room temperature in 1×SSC (0.3 M NaCl, 0.03 M sodium citrate), 0.1% SDS followed by a stringent wash at 55° C. for 30 min in 0.3×SSC, 0.1% SDS. Filters were exposed to autoradiographic film for 1-4 days (adjusted to ensure the signal density was within the linear range). […] Optical density was determined using a computer-driven image analysis system (Seescan plc, Cambs, UK). Values were expressed as a percentage of control levels.

[14] = 100 mg every 8 hours orally, seven days
[15] = 100 mg every 8 hours orally, seven days, healthy men

T1 sequence (P28845 whole entry): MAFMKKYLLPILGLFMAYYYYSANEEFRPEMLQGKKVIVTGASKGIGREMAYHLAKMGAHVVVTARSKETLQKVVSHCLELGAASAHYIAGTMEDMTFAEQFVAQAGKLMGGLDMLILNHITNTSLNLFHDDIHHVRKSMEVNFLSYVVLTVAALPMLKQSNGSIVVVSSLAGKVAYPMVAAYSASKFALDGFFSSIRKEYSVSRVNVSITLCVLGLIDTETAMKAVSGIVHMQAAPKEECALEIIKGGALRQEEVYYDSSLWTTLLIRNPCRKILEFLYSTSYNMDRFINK
T2 sequence (P16232 whole entry): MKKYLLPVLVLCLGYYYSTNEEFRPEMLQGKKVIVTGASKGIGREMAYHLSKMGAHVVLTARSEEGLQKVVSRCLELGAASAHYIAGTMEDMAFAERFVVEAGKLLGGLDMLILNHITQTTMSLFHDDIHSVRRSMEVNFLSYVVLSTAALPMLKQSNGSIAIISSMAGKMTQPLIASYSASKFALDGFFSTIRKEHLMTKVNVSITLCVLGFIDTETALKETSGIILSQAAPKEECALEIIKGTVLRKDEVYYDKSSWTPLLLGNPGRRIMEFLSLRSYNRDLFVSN

In the case of `CC1(C)[C@@H](OC(=O)CCC(=O)O)CC[C@]2(C)[C@H]3C(=O)C=C4[C@@H]5C[C@@](C)(C(=O)O)CC[C@]5(C)CC[C@@]4(C)[C@]3(C)CC[C@@H]12` [carbenoxolone, 3β-(3-carboxypropionyloxy)-11-oxo-olean-2-en 30-oic acid], the “effect on 11β-reductase in vivo” value [1] is reported as “inhibits”, the “hepatic 11β-reductase activity in vivo in man” value ([1]; oral cortisone converted to cortisol, man) is reported as “inhibits” and the blood pressure [2, 14] is reported as “not elevated”. For the same compound, the forearm blood flow [2, 14] was “not elevated”, the fasting glucose concentration [2, 15] was “no change” and the fasting insulin concentration [2, 15] was “fall”. For the same compound, the “plasma renin, aldosterone, and potassium concentrations” value ([2]; consequent on renal effects) was “suppressed”, the “peripheral glucose uptake as measured by forearm glucose uptake” value ([2]; euglycaemic clamp, day 7, versus placebo) was “No difference was detected” and the fasting glucose concentrations [3] was “dose-dependent fall”. For the same compound, the “11β-reductase activity in whole hippocampal cells” value [4] was “almost abolished”, the “potentiating effect of 11-dehydrocorticosterone on kainic acid neurotoxicity” value ([5]; with 11-dehydrocorticosterone) was “protected the cells” and the “effect of corticosterone on kainic acid neurotoxicity” value ([5]; with corticosterone) was “did not alter”. For the same compound, the 5β-reductase inhibition [6] was “inhibits”, the “affinity for corticosteroids receptors in vitro” value [7] was “low affinity” and the “action of insulin in adipocytes” value [8] was “antagonises”.

In the case of `C[C@]12CCC(=O)C=C1CC[C@@H]1[C@@H]2[C@@H](O)C[C@@]2(C)[C@H]1CC[C@]2(O)C(=O)CO` [cortisol], the “affinity of glucocorticoid receptors relative to mineralocorticoid receptors” value [9] is given as 10-40 times lower.

For `C[C@]12CC(=O)[C@H]3[C@@H](CCC4=CC(=O)CC[C@@]43C)[C@@H]1CC[C@@H]2C(=O)CO` [11-dehydrocorticosterone], the kainic acid neurotoxicity [5] was “potentiated” and the thymic involution [10] was “thymic involution seen”.

In the case of `C[C@]12C[C@H](O)[C@H]3[C@@H](CCC4=CC(=O)CC[C@@]43C)[C@@H]1CC[C@@H]2C(=O)CO` [corticosterone], the kainic acid neurotoxicity [5] is reported as “potentiated”.

In the case of `CC1(C)[C@@H](O)CC[C@]2(C)[C@H]3C(=O)C=C4[C@@H]5C[C@@](C)(C(=O)O)CC[C@]5(C)CC[C@@]4(C)[C@]3(C)CC[C@@H]12` [glycyrrhetinic acid], the “effect on 11β-reductase in vivo” value [1] is reported as “no effect”.

For `C[C@]12CC[C@@H]3c4ccc(O)cc4CC[C@H]3[C@@H]1CC[C@@H]2O` [estradiol, 17β-estradiol], the “hepatic 11β-HSD activity” value ([11]; 10, 21 and 42 days, gonadectomised male rats) was “marked decreases”, the “11β-HSD activity in the hippocampus” value ([11]; 21 or 42 days) was “not altered” and the “conversion of corticosterone to 11-dehydrocorticosterone in liver homogenates” value ([11]; 42 days of treatment, prolonged (60 min) incubation) was 12.2±14.7%. For the same compound, the “liver 11β-HSD1 activity in adrenalectomised rats” value ([11]; adrenalectomised, 21 days) was “reduced”, the “liver 11β-HSD1 mRNA in adrenalectomised rats” value ([12]; adrenalectomised, 21 days) was “reduced” and the “hepatic 11β-HSD1 mRNA expression” value ([12]; after 21 and 42 days, gonadectomised male rats) was “undetectable levels”. For the same compound, the “PEPCK mRNA levels in adrenalectomised rats” value ([13]; adrenalectomised, 21 days, compared with adrenalectomy alone) was “increased”, the “hepatic PEPCK gene expression” value ([13]; after 21 days, adrenally intact) was “decreased” and the “PEPCK mRNA expression” value ([13]; after 42 days) was “significantly reduced”.
